# Measured values published in article PMC9063426, “MAP kinases differentially bind and phosphorylate NOS3 via two unique NOS3 sites” (FEBS Open Bio, 2022).
# Entries after “also recorded” stand apart in the source; their conditions may differ. Where a SMILES comes first, the peptide text is derived from it. Where no end group is shown, it is not given here.
# What was measured:
# [1] = tested on: NOS3; assay: In vitro kinase assay with NOS3, phospho-specific immunoblotting; type: biochemical, human; conditions: active kinases with NOS3, 5 and 60 min; for phosphorylation of NOS3 at S114: immunoblot with anti-pS114; for phosphorylation of NOS3 at S600: immunoblot with anti-pS600
# Description: (§1) Active (HIS‐NOS3) was incubated alone or with individual kinases (ERK2, p38α, JNK1α1, and PKA) in 100 µL reaction buffer (20 mM HEPES, 0.5 mM DTT, 5 mM MgCl2, 0.5 mM ATP, and 10% glycerol at a pH of 7.4). The reactions were performed at 22‐25 °C for up to 1 h, and for the examination of nitric oxide activity, samples were incubated on ice for the immediate detection of NO via the oxyhemoglobin to methemoglobin assay (see below). For immunoblotting analysis to examine phosphorylation, kinase samples were quenched with 2× sample buffer spiked with 25 mM DTT and heated to 95 °C for 5 min. Boiled samples (at equal volumes) were electrophoresed and transferred to PDVF for immunoblot staining.
# All samples were loaded at equal volumes on 3–8% gradient tris‐acetate gels. All gels were transferred to PVDF membranes and transferred for either 2 h at 40V or for 20V overnight. Membranes were blocked with one block (Li‐Cor Biosciences) for 30 m and incubated with respective antibodies (at manufacturers recommend concentrations for immunoblotting, 1 : 500 for the anti‐pS600‐NOS3) overnight at 4 °C. Blots were brought to RT for 30 m and washed 3× with 1X TBST for 10 m, probed with a fluorometric secondary antibody (Li‐Cor IRDye®) for 1 h, and washed before visualizing with a Li‐Cor Odyssey.
# [2] = tested on: NOS3; assay: Oxyhemoglobin assay of NO production by kinase-treated NOS3; type: biochemical, human; conditions: oxyHb assay, 2.5 µM NOS3 with ERK2 14 nM (N = 10), p38α 14 nM (N = 4), JNK1α1-GST 63 nM (N = 3) or PKA 14 nM (N = 4), 30 min; versus untreated NOS3
# Description: as §1
# The oxyhemoglobin assay (oxyHb assay) is a spectroscopic method that measures the oxidative reaction of oxyhemoglobin at 421 nm (oxyHb) and methemoglobin (metHb) at 401 nm. Kinase assay reactions quenched on ice were used to measure NO synthesis and consumption. All oxyHb reactions were performed at 25 °C in a BioTek 96‐well UV‐visible spectrophotometer. Each reaction (100 µL total volume) was mixed with 40 µL of reaction buffer (1 μM FAD, 1 μM FMN, 10% glycerol, 12 nM BH4, 100 μM L‐arginine, 10 mM Tris/HCl, pH 7.5 at 25°, 250 μM CaCl2, 0.20 mg·mL^−1 BSA, 0.31 mg Hemoglobin, 7–10 U Superoxide Dismutase, 7–10 U Catalase, and 17 μg Calmodulin) and up to 40 µL (6–10 µg) of phosphorylated NOS3. Absorbance at 401 nm and 421 nm were read for 1 m at 15‐s intervals. To initiate the reaction, 20 µL of 200 mM NADPH reconstituted in Tris/HCl (1.4 M pH 7.5 at room temperature) was added. Measurements were recorded for 10 min at 15‐s intervals.
# To calculate NOS3 activity, the change in absorbance/unit time was divided by the extinction coefficient (ε401‐421 = 77 200 M ^−1cm^−1 (ε401 = 38 600 M ^−1cm^−1)). This yielded NOS3 activity in units of molar change/unit time. Activity of kinase exposed NOS3 was compared to the NOS3 control activity (comparably treated NOS3 but not phosphorylated), and the data are presented as a percent of the control NOS3.
# [3] = target: NOS3; conditions: full-length NOS3; previously reported; ref [4]; cited from earlier work
# Text: While there is substantial nonspecific binding inherent in the NOS1 sample, it is quite clear that there is no observable specific binding. […] This was not surprising since others have qualitatively shown an interaction between NOS3 and JNK [10] and the MAP kinases have similarities in the requirements of binding to activators and substrates. Lack of binding to NOS1 by all three MAP kinases examined thus far strengthens the interpretation that NOS3 is a node for MAP kinase signaling, while NOS1 and NOS2 are not.
# [4] = tested on: NOS1; conditions: previous studies; ref [4]; cited from earlier work
# Text: While there is substantial nonspecific binding inherent in the NOS1 sample, it is quite clear that there is no observable specific binding. […] The NOS1 isoform lacks the pentabasic sequence in the autoinhibitory loop that we hypothe ...
# [5] = tested on: NOS3; assay: NOS3 phosphorylation status in HMEC-1 cells; type: cell-based, human; conditions: data not shown
# Description: Human microvascular endothelial cells (HMEC‐1) (CRL‐3243, ATCC) were cultured in MCDB131 medium. HMEC‐1 cells were maintained as described by the ATCC in MCDB131 supplemented with 10% FBS, 1 µg·mL^−1 Hydrocortisone, 10 mM Glutamine, and 10 ng·mL^−1 Epidermal Growth Factor under an atmosphere of 5% CO2 at 37 °C.
# [6] = tested on: NOS3; conditions: previous report, different (SignalChem GST) ERK2, bovine NOS3; ref [6]; cited from earlier work
# Description: Portions of the NOS3 phosphorylation assays were analyzed for nitric oxide production, using PKA as a positive control. […] It is important to note that we cannot interpret the degree of NOS3 phosphorylation, just that NOS3 was phosphorylate ...
# [7] = tested on: NOS3; conditions: earlier work, ERK2-treated NOS3; ref [6]; cited from earlier work
# [8] = target: T1, ERK2 (Rattus norvegicus, UniProt P63086); assay: BLI binding of biotinylated NOS3 peptides to ERK2; conditions: for binding of phosphopeptide: BLI sensorgram, kinase analyte ERK2; for Kd / koff / kon: BLI, global one-state fit; for Kd: inactive (unphosphorylated) ERK2 31-1000 nM, biotinylated peptide ligand, 25 °C, PBS, 10% glycerol, 0.005% tween, 1 mM DTT; for koff / kon: inactive ERK2, 25 °C, PBS buffer
# T1 construct: His; host or cells: E. coli BL21(DE3) pLysS
# Description: (§2) Biolayer interferometry (BLI) experiments were performed on a FortéBio (Menlo Park, CA) Octet QK biosensor using streptavidin (SA) sensors. Assays were performed in opaque 96‐well microplates at 25 °C. All volumes were 200 μL. Active GST‐JNK1α1 (SignalChem) was biotinylated by amine crosslinking to NHS‐LC‐LC‐biotin (succinimidyl‐6‐[biotinamido]‐6‐hexanamidohexanoate) (Thermo Fisher, Waltham, MA, USA). Reactions were performed at a 5 : 1 molar ratio of biotin to protein for 30 min at room temperature followed by separation of protein from free biotin by passage over a desalting column. Biotinylated JNK1α1 was loaded onto sensors for 300 s, which was sufficient to saturate them. Baseline was established by dipping sensors into binding buffer (50 mM Tris, pH 7.4, 10 mM NaCl, 10% glycerol, 0.01% Tween‐20) prior to moving sensors to wells containing varying concentrations of serially diluted NOS3 in the same buffer. Association was measured for 300 s, after which sensors were moved to wells containing buffer only and dissociation was monitored for another 300 s. Raw data were normalized for baseline drift by subtracting signal from a ligand‐saturated sensor exposed to buffer only throughout the experiment and then iteratively fit to a one‐state global association‐then‐dissociation binding model using GRAPHPAD Prism. Total binding was used for analysis as nonspecific binding measured by exposing sensors without ligand to analyte was negligible at all NOS3 concentrations used; that is, total binding was effectively specific binding due to very low nonspecific binding.
# (§3) For peptide binding experiments, N‐terminally biotinylated peptides (Biomatik) (Table 1) in PBS with 10% glycerol, 0.005% tween, and 1 mM DTT were loaded onto SA sensors as above. After establishing baseline, sensors were exposed to serial dilutions of analyte MAP kinases ranging from 31 to 1000 nM. Peptide experiments were performed using parameters identical to the protein ligand experiments excepting the buffer was PBS with 10% glycerol, 0.005% tween, and 1 mM DTT throughout.
# (§4) We tested both hypothesized interaction sites and the impact of nearby phosphorylation sites using: (a) a nonphosphorylated peptide corresponding to the putative NtMAP site (Fig. 1); (b) the identical peptide with S114 phosphorylated; (c) a nonphosphorylated peptide corresponding to the AI loop site; and (d) an identical peptide phosphorylated at the position corresponding to S633. The resultant sensorgrams are shown in Fig. 4 fit to global one‐state binding models to determine binding parameters. While there are complexities present in the data (see Discussion), a one‐state models fit very well to all peptide‐kinase curves. All three kinases bound both unphosphorylated peptides with submicromolar affinity that in most cases approximated the affinity observed for full‐length NOS3 reported above and in our prior report.
# [9] = target: T2, p38α (Homo sapiens, UniProt Q16539); assay: BLI binding of biotinylated NOS3 peptides to p38α; conditions: for binding of phosphopeptide: BLI sensorgram, kinase analyte p38α; for koff / kon: BLI, inactive p38α, 25 °C, PBS buffer, global one-state fit
# T2 construct: His; made in house; host or cells: E. coli BL21(DE3) pLysS
# Description: as §2, §3, §4
# [10] = target: T3, JNK1α1 (Homo sapiens, UniProt P45983); assay: BLI binding of biotinylated NOS3 peptides to JNK1α1; conditions: for binding of phosphopeptide: BLI sensorgram, kinase analyte JNK1α1; for Kd / koff / kon: BLI, global one-state fit; for Kd: inactive (unphosphorylated) JNK1α1 31-1000 nM, biotinylated peptide ligand, 25 °C, PBS, 10% glycerol, 0.005% tween, 1 mM DTT; for koff / kon: inactive JNK1α1, 25 °C, PBS buffer
# T3 construct: GST; host or cells: E. coli BL21(DE3) pLysS
# Description: as §2, §3, §4
# [11] = tested on: NOS3; assay: TCSPC fluorescence lifetime, conformation of NOS3; conditions: FMN excited at 473 nm, detected at 525 nm
# Description: Time‐resolved intensity decays were recorded using time‐correlated single‐photon counting fluorescence lifetime spectrometry (TCSPC FLT) to determine whether phosphorylation by JNK1α1 changes the conformation of NOS3.
# T3 sequence (P45983 1-384 isoform P45983-2, species assumed): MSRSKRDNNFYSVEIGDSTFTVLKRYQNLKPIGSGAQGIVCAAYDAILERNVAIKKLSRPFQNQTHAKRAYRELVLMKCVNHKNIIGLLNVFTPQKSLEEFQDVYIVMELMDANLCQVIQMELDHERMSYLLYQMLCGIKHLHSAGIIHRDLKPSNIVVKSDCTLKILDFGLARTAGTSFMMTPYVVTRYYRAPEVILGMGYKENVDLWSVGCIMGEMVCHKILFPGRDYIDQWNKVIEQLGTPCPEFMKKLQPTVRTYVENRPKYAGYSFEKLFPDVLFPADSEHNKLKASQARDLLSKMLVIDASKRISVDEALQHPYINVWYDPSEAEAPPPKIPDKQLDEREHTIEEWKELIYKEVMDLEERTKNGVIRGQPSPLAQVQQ
# T1 sequence (P63086 whole entry): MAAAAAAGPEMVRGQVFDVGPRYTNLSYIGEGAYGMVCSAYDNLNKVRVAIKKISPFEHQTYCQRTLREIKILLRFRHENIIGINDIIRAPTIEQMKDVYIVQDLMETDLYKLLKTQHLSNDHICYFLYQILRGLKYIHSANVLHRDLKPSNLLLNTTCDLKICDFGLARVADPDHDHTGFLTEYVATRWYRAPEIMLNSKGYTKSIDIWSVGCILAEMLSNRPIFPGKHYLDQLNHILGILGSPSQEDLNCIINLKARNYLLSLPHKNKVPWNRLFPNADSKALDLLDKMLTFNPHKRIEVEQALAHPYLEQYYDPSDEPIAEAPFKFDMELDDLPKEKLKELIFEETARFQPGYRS
# T2 sequence (Q16539 whole entry): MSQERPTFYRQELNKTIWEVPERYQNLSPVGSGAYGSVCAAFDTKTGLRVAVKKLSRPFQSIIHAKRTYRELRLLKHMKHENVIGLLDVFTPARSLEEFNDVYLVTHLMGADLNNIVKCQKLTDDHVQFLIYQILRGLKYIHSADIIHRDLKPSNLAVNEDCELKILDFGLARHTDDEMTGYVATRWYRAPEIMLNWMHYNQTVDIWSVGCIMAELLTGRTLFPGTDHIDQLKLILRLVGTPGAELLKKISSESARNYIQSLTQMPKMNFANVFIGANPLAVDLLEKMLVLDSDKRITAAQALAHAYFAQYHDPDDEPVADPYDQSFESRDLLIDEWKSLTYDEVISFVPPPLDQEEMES
compound,measurement,setting,value
mitogen‐activated protein kinase 14 [p38α],phosphorylation of NOS3 at S114,[1],phosphorylates both residues; also recorded: easily detected when compared to ERK2
same,phosphorylation of NOS3 at S600,[1],phosphorylates both residues; also recorded: robust when compared to JNK1α1
same,NO production / NOS3 activity,[2],do not significantly change NO production; also recorded: did not alter in vitro NOS3 activity
same,Kd,[3],80 nM
same,binding to NOS1,[4],no binding to NOS1
"insulin: insulin, treatment of HMEC-1 cells",NOS3 phosphorylation status,[5],altered NOS3 phosphorylation status
mitogen‐activated protein kinase 1 [ERK2],phosphorylation of NOS3 at S114,[1],did not meaningfully phosphorylate S114 when compared to JNK1α1 and p38α
same,phosphorylation of NOS3 at S600,[1],at S600; also recorded: phosphorylates S600; also recorded: robust when compared to JNK1α1
same,NO production / NOS3 activity,[2],do not significantly change NO production; also recorded: did not alter in vitro NOS3 activity
same,Kd,[3],160 nM
same,binding to NOS1,[4],no binding to NOS1
same,inhibition of NOS3 activity,[6],approximately 50%
same,conformation of NOS3,[7],presented an altered conformation from untreated NOS3
"YKIRFNSISCSDPLVSSWRRKRKES*SNTDSA [AI with phosphorylated S633, AI loop peptide phosphorylated at the position corresponding to S633]",binding of phosphopeptide,[8],negligible binding
same,binding of phosphopeptide,[9],negligible binding
same,binding of phosphopeptide,[10],negligible binding
"CTPRRCLGSLVFPRKLQGRPS*PGPPA [NtMAP with phosphorylated S114, NtMAP peptide with S114 phosphorylated]",binding of phosphopeptide,[8],negligible binding
same,binding of phosphopeptide,[9],negligible binding
same,binding of phosphopeptide,[10],negligible binding
Epidermal Growth Factor [EGF],NOS3 phosphorylation status,[5],altered NOS3 phosphorylation status
YKIRFNSISCSDPLVSSWRRKRKESSNTDSA [AI],Kd,[8],170 nM
same,koff,[8],0.002 s⁻¹
same,kon,[8],12100 M⁻¹ s⁻¹
same,koff,[9],0.00096 s⁻¹
same,kon,[9],15900 M⁻¹ s⁻¹
same,Kd,[10],3 nM
same,koff,[10],0.00025 s⁻¹
same,kon,[10],84600 M⁻¹ s⁻¹
CC(C)C[C@H](NC(=O)[C@H](CS)NC(=O)[C@H](CCCNC(=N)N)NC(=O)[C@H](CCCNC(=N)N)NC(=O)[C@@H]1CCCN1C(=O)[C@@H](NC(=O)[C@@H](N)CS)[C@@H](C)O)C(=O)NCC(=O)N[C@@H](CO)C(=O)N[C@@H](CC(C)C)C(=O)N[C@H](C(=O)N[C@@H](Cc1ccccc1)C(=O)N1CCC[C@H]1C(=O)N[C@@H](CCCNC(=N)N)C(=O)N[C@@H](CCCCN)C(=O)N[C@@H](CC(C)C)C(=O)N[C@@H](CCC(N)=O)C(=O)NCC(=O)N[C@@H](CCCNC(=N)N)C(=O)N1CCC[C@H]1C(=O)N[C@@H](CO)C(=O)N1CCC[C@H]1C(=O)NCC(=O)N1CCC[C@H]1C(=O)N1CCC[C@H]1C(=O)N[C@@H](C)C(=O)O)C(C)C [NtMAP] (H-CTPRRCLGSLVFPRKLQGRPSPGPPA-OH),Kd,[8],940 nM
same,koff,[8],0.00623 s⁻¹
same,kon,[8],6600 M⁻¹ s⁻¹
same,koff,[9],0.00053 s⁻¹
same,kon,[9],17300 M⁻¹ s⁻¹
same,Kd,[10],38 nM
same,koff,[10],0.00054 s⁻¹
same,kon,[10],14100 M⁻¹ s⁻¹
Calmodulin [reference compound],conformation of NOS3 (fluorescence decay),[11]; NOS3 holoenzyme,produced a change in conformation indicative of active NOS3
same,conformation of JNK1α1-treated NOS3 (fluorescence decay),[11]; calmodulin on JNK1α1-treated NOS3,produced the same degree of shift (activation) in JNK1α1‐treated NOS3
"cAMP‐dependent protein kinase [PKA, reference compound]",NO production / NOS3 activity,[2],increased production of NO; also recorded: increased activity
